# Reference: patent US12570615B2, “Quinazolinone derivatives” (Hoffmann-La Roche Inc., priority 2021, dated 2026)
# Legend:
# BRAF (wt) = BRAF (wt) (Homo sapiens, UniProt P15056); assay: KD BRAF (wt) (Table 1); type: binding
# BRAF (V600E) = BRAF (V600E) (Homo sapiens, UniProt P15056, V600E); assay: KD BRAF (V600E) (Table 1); type: binding
# [1] = system: P-ERK (ERK phospho-T202/Y204) in HCT116 cells expressing WT BRAF; assay: HTRF assay for P-ERK determination in HCT116 cells (BRAF activation); type: cell-based; conditions: Homo sapiens, HCT-116, drug incubation 1 hour, concentration giving 50% of the maximum activation achieved by Dabrafenib
# Description: (§1) A375 is a cellular cancer model expressing V600E mutated BRAF and HCT116 a cellular cancer model expressing WT BRAF. First generation BRAF inhibitors such as e.g. dabrafenib induce a paradox effect on tumour cells in that they inhibit the growth of V600E mutated BRAF cells (such as e.g. A375), while they activate growth in WT BRAF cells (such as e.g. HCT 116). ERK 1,2 phosphorylation (terminal member of the phosphorylation cascade of the MAPK pathway) is hereafter reported as main readout for the activation status of the MAPK pathway. DMEM no-phenol red medium supplemented with L-glutamine was purchased from (Thermo Fisher Scientific). Fetal bovine serum (FBS) was purchased from VWR. Advanced ERK phospho-T202/Y204 kit—10,000 tests was purchased from Cisbio cat #64AERPEH. A375 (catalog #CRL-1619) and HCT116 (catalog #CCL-247) cells were originally obtained from American type Culture Collection (ATCC) and banked by the Roche repository. 384-Well microplates utilized were purchased from Greiner Bio-One, 384-well, (With Lid, HiBase, Low volume cat 784-080).
# (§2) Prior to the assay, A375 and HCT116 cell lines are maintained in DMEM no-phenol red medium supplemented with 10% fetal bovine serum (FBS). Following compound treatment, P-ERK levels are determined by measuring FRET fluorescence signal induced by selective binding of 2 antibodies provided in the mentioned kit (Cisbio cat #64AERPEH) on ERK protein when phosphorylated at Thr202/Tyr204. Briefly, 8000 cells/well in 12 μl media/well are plated in the 384-well plate and left overnight in the incubator (at 37° C. with 5% CO2-humidified atmosphere), the following day the plate is treated in duplicate with test compounds, dabrafenib and PLX8394 (the latter two as controls) at the following final drug concentrations: 10 μM-3 μM 1 μM-0.3 μM-0.1 μM-0.03 μM-0, 01 μM-0.003 μM-0.001 μM, all wells are subjected to DMSO normalization and drug incubation occurs for 1 hour. Then, […] of a 4× lysis buffer supplied with the kit are added to the wells, the plate is then centrifuged for 30 second (3000 rpm) and incubated on a plate shaker for 1 h at rt.
# (§3) At the end of the incubation 4 μL/well of advanced P-ERK antibody solution (prepared according to manufacturer's instruction) followed by 4 μL/well of criptate P-ERK antibody solution (prepared according to manufacturer's instruction) (Cisbio cat #64AERPEH) are added to test wells.
# (§4) In order to allow proper data normalization control wells non drug treated reported in the following table are always included in each plate (according to manufacturer's instruction):
# (§5) The plate is then centrifuged at 3000 rpm for 30 second, sealed to prevent evaporation and incubated overnight in the dark at room temperature.
# (§6) The plate is then analyzed and fluorescence emission value collected through a Pherastast FSX (BMG Labtech) apparatus at […].
# (§7) The obtained fluorescence values are processed according to the formula Ratio=[…]*10000 then the average of the ratio on the blank is subtracted to all values.
# Data are normalized in the case of HCT116 cells (BRAF activation) considering the average of the ratio (blank subtracted) derived by DMSO only treated cells as 0% and by considering the average of the ratio (blank subtracted) derived by Dabrafenib treated cells at the concentration which provides the highest signal as 100%. Individual points are fitted with either sigmoidal or bell shape curves. The EC50 is the concentration at which activation equal to 50% of the maximum activation achieved by Dabrafenib is obtained.
# [2] = system: P-ERK (ERK phospho-T202/Y204) in A375 cells expressing V600E mutated BRAF; assay: HTRF assay for P-ERK determination in A375 cells (BRAF inhibition); type: cell-based; conditions: Homo sapiens, A-375, P-ERK level, drug incubation 1 hour, DMSO = 100%, 10 μM Dabrafenib = 0%
# Description: as §1, §2, §3, §4, §5, §6, §7
# Data are normalized in the case of A375 cells (BRAF inhibition) considering the average of the ratio (blank subtracted) derived by DMSO only treated cells as 100% and by considering the average of the ratio (blank subtracted) derived by 10 μM Dabrafenib treated cells as 0%. Mean of the normalized points are fitted with sigmoidal curve and IC50 determined.
# Sequence of BRAF (V600E) (P15056 whole entry V600E): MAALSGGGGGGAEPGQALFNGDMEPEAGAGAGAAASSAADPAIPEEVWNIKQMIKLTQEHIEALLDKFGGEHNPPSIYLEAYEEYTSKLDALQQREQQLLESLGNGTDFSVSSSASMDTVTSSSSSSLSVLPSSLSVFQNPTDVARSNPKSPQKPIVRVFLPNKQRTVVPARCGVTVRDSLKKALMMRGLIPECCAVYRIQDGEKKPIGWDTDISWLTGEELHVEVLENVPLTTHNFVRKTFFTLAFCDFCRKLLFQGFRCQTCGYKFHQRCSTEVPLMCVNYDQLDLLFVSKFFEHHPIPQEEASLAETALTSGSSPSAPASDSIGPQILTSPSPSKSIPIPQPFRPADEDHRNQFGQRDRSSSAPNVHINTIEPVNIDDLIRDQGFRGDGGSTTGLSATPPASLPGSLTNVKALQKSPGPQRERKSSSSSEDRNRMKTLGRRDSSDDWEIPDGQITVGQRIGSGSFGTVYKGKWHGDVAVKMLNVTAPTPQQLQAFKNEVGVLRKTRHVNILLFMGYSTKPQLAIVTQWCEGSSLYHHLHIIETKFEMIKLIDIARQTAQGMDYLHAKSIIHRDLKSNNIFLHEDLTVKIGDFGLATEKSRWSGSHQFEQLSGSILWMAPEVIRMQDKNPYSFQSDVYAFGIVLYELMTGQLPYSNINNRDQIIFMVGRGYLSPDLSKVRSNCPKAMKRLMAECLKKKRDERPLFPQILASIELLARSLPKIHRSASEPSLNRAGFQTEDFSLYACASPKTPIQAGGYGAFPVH
# Sequence of BRAF (wt) (P15056 whole entry): as the sequence (P15056 whole entry V600E) above, with E600V counted along it
Kd (BRAF (wt)) [nM],Kd (BRAF (V600E)) [nM],EC50 [1] [nM],IC50 [2] [nM],SMILES
15.3,26.7,2360,19.8,"CCN(C)S(=O)(=O)Nc1ccc(F)c(Oc2ccc3ncn(CCCC(=O)OC(C)(C)C)c(=O)c3c2)c1C#N [Example 1, tert-butyl 4-[6-[2-cyano-3-[[ethyl(methyl)sulfamoyl]amino]-6-fluoro-phenoxy]-4-oxo-quinazolin-3-yl]butanoate]"
18.9,21.4,2250,30.3,"CC(C)(C)OC(=O)N1CCC(CCn2cnc3ccc(Oc4c(F)ccc(NS(=O)(=O)N5CC[C@@H](F)C5)c4C#N)cc3c2=O)CC1 [Example 2, tert-butyl 4-[2-[6-[2-cyano-6-fluoro-3-[[(3R)-3-fluoropyrrolidin-1-yl]sulfonylamino]phenoxy]-4-oxo-quinazolin-3-yl]ethyl]piperidine-1-carboxylate]"
78.3,162,6400,41,"CCN(C)S(=O)(=O)Nc1ccc(F)c(Oc2ccc3ncn(CCC4CCN(C(=O)OC(C)(C)C)CC4)c(=O)c3c2)c1C#N [Example 3, tert-butyl 4-[2-[6-[2-cyano-3-[[ethyl(methyl)sulfamoyl]amino]-6-fluoro-phenoxy]-4-oxo-quinazolin-3-yl]ethyl]piperidine-1-carboxylate]"
1.09,2.75,7080,73.5,"CC(C)(C)OC(=O)NCCCn1cnc2ccc(Oc3c(F)ccc(NS(=O)(=O)N4CC[C@@H](F)C4)c3C#N)cc2c1=O [Example 4, tert-butyl N-[3-[6-[2-cyano-6-fluoro-3-[[(3R)-3-fluoropyrrolidin-1-yl]sulfonylamino]phenoxy]-4-oxo-quinazolin-3-yl]propyl]carbamate]"
1.35,2.82,1190,18.1,"CC(C)(C)OC(=O)NCCCn1cnc2ccc(Oc3c(F)ccc(NS(=O)(=O)N4CCCC4)c3C#N)cc2c1=O [Example 5, tert-butyl N-[3-[6-[2-cyano-6-fluoro-3-(pyrrolidin-1-ylsulfonylamino)phenoxy]-4-oxo-quinazolin-3-yl]propyl]carbamate]"
6.36,19.4,≥ 10000,41.6,"CCN(C)S(=O)(=O)Nc1ccc(F)c(Oc2ccc3ncn(CCCNC(=O)OC(C)(C)C)c(=O)c3c2)c1C#N [Example 6, tert-butyl N-[3-[6-[2-cyano-3-[[ethyl(methyl)sulfamoyl]amino]-6-fluoro-phenoxy]-4-oxo-quinazolin-3-yl]propyl]carbamate]"
12.2,20.8,2100,52,"CC(C)(C)OC(=O)N1CCC(CCn2cnc3ccc(Oc4c(F)ccc(NS(=O)(=O)N5CCCC5)c4C#N)cc3c2=O)CC1 [Example 7, tert-butyl 4-[2-[6-[2-cyano-6-fluoro-3-(pyrrolidin-1-ylsulfonylamino)phenoxy]-4-oxo-quinazolin-3-yl]ethyl]piperidine-1-carboxylate]"
4.86,7.83,2430,33.9,"CC(C)(C)OC(=O)NCCCn1cnc2ccc(Oc3c(F)ccc(NS(=O)(=O)C4CCCC4)c3C#N)cc2c1=O [Example 8, tert-butyl N-[3-[6-[2-cyano-3-(cyclopentylsulfonylamino)-6-fluoro-phenoxy]-4-oxo-quinazolin-3-yl]propyl]carbamate]"
0.69,0.97,624,28.9,"CC(C)(C)OC(=O)NCCCn1cnc2ccc(Oc3c(F)ccc(NS(=O)(=O)N4CCC4)c3C#N)cc2c1=O [Example 9, tert-butyl N-[3-[6-[3-(azetidin-1-ylsulfonylamino)-2-cyano-6-fluoro-phenoxy]-4-oxo-quinazolin-3-yl]propyl]carbamate]"
3.51,4.82,1530,36.7,"CC(C)(C)OC(=O)N1CCN(CCn2cnc3ccc(Oc4c(F)ccc(NS(=O)(=O)N5CC[C@@H](F)C5)c4C#N)cc3c2=O)CC1 [Example 10, tert-butyl 4-[2-[6-[2-cyano-6-fluoro-3-[[(3R)-3-fluoropyrrolidin-1-yl]sulfonylamino]phenoxy]-4-oxo-quinazolin-3-yl]ethyl]piperazine-1-carboxylate]"
24.4,50.5,908,52.5,"N#Cc1c(NS(=O)(=O)C2CCCC2)ccc(F)c1Oc1ccc2ncn(CCCc3ccccc3)c(=O)c2c1 [Example 11, N-[2-cyano-4-fluoro-3-[4-oxo-3-(3-phenylpropyl)quinazolin-6-yl]oxy-phenyl]cyclopentanesulfonamide]"
27.6,59.2,4930,55.9,"CC(C)(C)OC(=O)NCCCn1cnc2ccc(Oc3c(F)ccc(NS(=O)(=O)C4CCCCC4)c3C#N)cc2c1=O [Example 12, tert-butyl N-[3-[6-[2-cyano-3-(cyclohexylsulfonylamino)-6-fluoro-phenoxy]-4-oxo-quinazolin-3-yl]propyl]carbamate]"
12.1,19.3,2820,36.3,"CCC(C)S(=O)(=O)Nc1ccc(F)c(Oc2ccc3ncn(CCCNC(=O)OC(C)(C)C)c(=O)c3c2)c1C#N (centres unmarked) [Example 13, tert-butyl N-[3-[6-[2-cyano-6-fluoro-3-(sec-butylsulfonylamino)phenoxy]-4-oxo-quinazolin-3-yl]propyl]carbamate]"
54.3,114,4850,254,"CC(C)(C)OC(=O)N1CCC(CCn2cnc3ccc(Oc4c(F)ccc(NS(=O)(=O)C5CCCCC5)c4C#N)cc3c2=O)CC1 [Example 14, tert-butyl 4-[2-[6-[2-cyano-3-(cyclohexylsulfonylamino)-6-fluoro-phenoxy]-4-oxo-quinazolin-3-yl]ethyl]piperidine-1-carboxylate]"
50.4,93.5,4040,78.9,"CCC(C)S(=O)(=O)Nc1ccc(F)c(Oc2ccc3ncn(CCC4CCN(C(=O)OC(C)(C)C)CC4)c(=O)c3c2)c1C#N (centres unmarked) [Example 15, tert-butyl 4-[2-[6-[2-cyano-6-fluoro-3-(sec-butylsulfonylamino)phenoxy]-4-oxo-quinazolin-3-yl]ethyl]piperidine-1-carboxylate]"
1.61,2.16,240,11,"CC(C)(C)OC(=O)N1CCN(CCn2cnc3ccc(Oc4c(F)ccc(NS(=O)(=O)N5CCCC5)c4C#N)cc3c2=O)CC1 [Example 16, tert-butyl 4-[2-[6-[2-cyano-6-fluoro-3-(pyrrolidin-1-ylsulfonylamino)phenoxy]-4-oxo-quinazolin-3-yl]ethyl]piperazine-1-carboxylate]"
12.3,24.6,1140,57.1,"CC(C)(C)OC(=O)N1CCC(CCn2cnc3ccc(Oc4c(F)ccc(NS(=O)(=O)C5CCCC5)c4C#N)cc3c2=O)CC1 [Example 17, tert-butyl 4-[2-[6-[2-cyano-3-(cyclopentylsulfonylamino)-6-fluoro-phenoxy]-4-oxo-quinazolin-3-yl]ethyl]piperidine-1-carboxylate]"
